Measurements published in PubChem BioAssay AID1361 (SRMLSC, 2008).
Calls of active or inactive are those of the source. The rule behind the calls is not given here.

Experiment: blockers of mitochondrial fusion, WT vs mutant – cell-based, chemical genetic, wild-type and mutant, confirmation (AID 1361)
Conditions: Cell-based mitochondrial fusion phenotype, imaging
[1] = mutant cells, measured here: mutant cell line IC50

Structure (SMILES) | IC50 (WT cells) | IC50 [1] [µM]
CCc1cc(C(=O)Cc2ccc(F)cc2)c(O)cc1O | > 25 µM (inactive) | > 25
Cc1ccc(NCC(=O)N/N=C/c2cc3ccccc3nc2Cl)cc1 | > 25 µM (inactive) | > 25
Cc1onc(-c2ccccc2Cl)c1C(=O)Nc1nnc(-c2ccc(Br)cc2)s1 | 8.39 µM | > 25
CCOc1cccc(-c2nn(-c3ccccc3)cc2/C=C(/C#N)C(=O)NCCCn2ccnc2)c1 | > 25 µM (inactive) | > 25
Cc1nc(N2CCCCC2)c2c(C)c(C(=O)Nc3cccc(C(F)(F)F)c3)sc2n1 | 9.62 µM | > 25
C1CCN=C(Nc2nc3c(s2)CCCC3)CC1 | > 25 µM (inactive) | > 25
CCOC(=O)C(C)c1nc2ccccc2[nH]c1=O (stereo not drawn) | > 25 µM (inactive) | > 25
Cc1cccc(N2CCN(C(c3cccs3)c3nnnn3C(C)(C)C)CC2)c1C (stereo not drawn) | 10.9 µM | > 25
COc1ccc(-c2[nH]c(-c3cc(OC)c4c(c3)OCO4)nc2-c2ccccc2)cc1 | 12.6 µM | > 25
CCC(CC)C(=O)c1c[nH]c(C(=O)NCCCN2CCOCC2)c1 | > 25 µM (inactive) | > 25
CC1CC(C)CN(C2CCN(Cc3cccnc3)CC2)C1 (stereo not drawn) | > 25 µM (inactive) | > 25
COc1ccc(Nc2nc(-c3ccccc3)c3ccccc3n2)cc1 | 10.7 µM | > 25
CC(C)C(=O)N1CCC(CN=Cc2c(O)n(C3CCCCC3)c(=O)n(C3CCCCC3)c2=O)CC1 | 23 µM | > 25
CC(=O)N(C)c1nnc(-c2cnccn2)s1 | > 25 µM (inactive) | > 25
Cc1ccc(C(C(=O)NCC2CCCO2)N(Cc2ccccc2)C(=O)c2ccc(-c3ccccc3)[nH]2)o1 (stereo not drawn) | 10.9 µM | > 25
Cc1cc(C)n(CCc2nc(-c3ccc(C(C)(C)C)cc3)cs2)n1 | 22.1 µM | > 25
CC1(C)CC(=O)c2c(O)cc(OCc3ccc([N+](=O)[O-])cc3)cc2O1 | > 25 µM (inactive) | > 25
COc1ccc(C2N(c3ccc(Cl)cc3)N=C(C(C)=O)N(C)N2C(C)=O)cc1 (stereo not drawn) | 15.8 µM | > 25
NS(=O)(=O)c1ccc(N2N=C(c3ccccc3)CC2c2ccccc2)cc1 (stereo not drawn) | 12.1 µM | > 25
COC(=O)c1c(NC(=O)CN2CCC3(O)CCCCC3C2c2cc(OC)ccc2OC)sc(C)c1C (stereo not drawn) | 8.13 µM | > 25
Cc1cc(C)c(OCC(=O)Nc2nnc(-c3ccco3)o2)c(C)c1 | > 25 µM (inactive) | > 25

Structure (SMILES) | IC50 (WT cells) | IC50 [1] [µM]
CCOC(=O)C1CCN(S(=O)(=O)c2c(C)n[nH]c2C)CC1 | > 25 µM (inactive) | > 25
CCCCC(=O)NC(=S)Nc1ccccc1N1CCCCC1 | 19.8 µM | > 25
CC1CN(c2ncnc3c2c(-c2ccccc2)cn3-c2ccc(F)cc2)CC(C)O1 (stereo not drawn) | 21.4 µM | > 25
O=C1N(O)C2(C=CCCC2)/C(=N\O)C12CCCCC2 (stereo not drawn) | > 25 µM (inactive) | > 25
Cc1[nH]c2ccccc2c1/C=C(\C#N)C(=O)NC(C)c1ccccc1 (stereo not drawn) | > 25 µM (inactive) | > 25
CC(C)c1ccccc1OCC(=O)NC1CCCc2ccccc21 (stereo not drawn) | 20.4 µM | > 25
Cc1cc(C)nc(N2CCCC(C(=O)NCc3cccs3)C2)n1 (stereo not drawn) | > 25 µM (inactive) | > 25
Cc1nn(C(C)(C)C)c(OC(=O)c2ccc3c(c2)OCO3)c1Sc1ccccc1 | 8.28 µM | > 25
COc1ccc(C2CC(c3ccc(Br)cc3)=NN2C(=O)c2cccnc2)cc1 (stereo not drawn) | 18.2 µM | > 25
COC(=O)c1ccc(C2C3=C(Nc4nnnn42)c2ccccc2OC3)cc1 (stereo not drawn) | > 25 µM (inactive) | > 25
COc1ccc(CC(=O)N2CCOCC2)cc1OC | > 25 µM (inactive) | > 25
O=C(Nc1ccc2c(c1)nc1n2CCN(Cc2ccccc2)C1)c1cccs1 | > 25 µM (inactive) | > 25
CC(=O)C(N=Nc1ccccc1)(Sc1nnc(-c2ccccc2)n1-c1ccccc1)C(C)=O | 6.6 µM | > 25
FC(F)(F)c1cc(-c2ccco2)nc(NCc2ccc(Cl)cc2)n1 | 14.8 µM | > 25
COc1ccc(-n2ncc3c(NCc4ccco4)ncnc32)cc1 | > 25 µM (inactive) | > 25
CCOP(=O)(OCC)C(Nc1cccc(C(F)(F)F)c1)c1ccc(Br)cc1 (stereo not drawn) | 16.3 µM | > 25
Cc1ccc(C(c2nnnn2CCc2ccccc2)N2CCC(C)CC2)cc1 (stereo not drawn) | > 25 µM (inactive) | > 25
C[C@@H](C[C@@H](O)[C@H](O)C(C)(C)O)[C@@H]1CC[C@]2(C)C3=CC[C@H]4C(C)(C)C(=O)CC[C@]4(C)[C@H]3CC[C@@]12C | > 25 µM (inactive) | > 25
CCOc1ccc(NC(=O)CSc2nnc(-c3ccco3)n2C)cc1 | > 25 µM (inactive) | > 25
Cc1cc(Oc2ccc(C(C)(C)C)cc2)nc(N2CCOCC2)n1 | 19.9 µM | > 25

The remaining lines, values ahead:

IC50 (WT cells) | IC50 [1] [µM] | Structure (SMILES)
> 25 µM (inactive) | > 25 | O=C(CSc1nnc2scc(-c3ccccc3)n12)Nc1ccc2c(c1)OCCO2
5.83 µM | > 25 | O=C(C1=C[C@@H](c2csc3ccccc23)C[C@@H](OCc2ccc(CO)cc2)O1)N1CCN(Cc2ccccc2)CC1
13.4 µM | 18.9 | O=[N+]([O-])c1cc(C(F)(F)F)ccc1NCCc1c[nH]c2ccccc12
> 25 µM (inactive) | > 25 | O=C(Cc1ccc(Cl)cc1)Nc1ccccc1CO
> 25 µM (inactive) | > 25 | Cc1cc2c3c(c1)C1(SCC(=O)N1c1ccc(F)cc1)C(=O)N3C(C)(C)CC2C (stereo not drawn)
4.15 µM | > 25 | c1csc(C(c2nnnn2C2CCCCC2)N2CCCC3(CCCCC3)C2)c1 (stereo not drawn)
> 25 µM (inactive) | > 25 | CCCCOC(=O)Nc1cccc(C(=O)OCC)c1
12 µM | > 25 | Cc1ccc(C(=O)NC(=S)/C=C2\N(C)c3ccccc3C2(C)C)cc1
> 25 µM (inactive) | 21.8 | CN1/C(=C\C=Nc2ccc3ccccc3c2)C(C)(C)c2ccccc21
7.45 µM | 19.6 | Cc1nn(-c2ccccc2)c2sc(C(=O)N(Cc3ccco3)C(C)C(=O)NC(C)(C)C)cc12 (stereo not drawn)
17.6 µM | > 25 | CC(C)(C)c1ccc(CSc2nnc(-c3ccccn3)n2Cc2ccco2)cc1
4.95 µM | 14.8 | CCCCCC[n+]1c(-c2ccccc2)csc1Nc1ccccc1
> 25 µM (inactive) | > 25 | COCCn1c(CN2CCC(Cc3ccccc3)CC2)nc2c1c(=O)n(C)c(=O)n2C
5.68 µM | > 25 | CCOC(=O)C1=CN(c2cccc(F)c2)C=C(C(=O)OCC)C1c1cc(OC)c(O)c([N+](=O)[O-])c1
13.4 µM | > 25 | COc1ccc(C2c3c(ncn(Cc4ccco4)c3=N)Oc3ccc4ccccc4c32)cc1 (stereo not drawn)
15.8 µM | 22.3 | Fc1ccc(N2N=C(c3cccs3)CC2c2ccco2)c(F)c1 (stereo not drawn)
13.8 µM | 24.9 | COc1ccc(C2=NN(C(=O)c3cccs3)C(c3ccccc3O)C2)cc1 (stereo not drawn)
11.2 µM | 23.8 | O=c1c2cn[nH]c2nc(SCc2ccccc2F)n1-c1ccc(Br)cc1
